This note sets out measurements from patent publication US8697727B2, “N-substituted-heterocycloalkyloxybenzamide compounds and methods of use” (Rigel Pharmaceuticals, Inc., priority 2006, dated 2014).

The structures appear in SMILES notation.

The assay deals with AMPK. In words: AMPK activation, enzyme-linked immunosorbent assay. Type of assay: cell-based. In a few lines:
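Cell-based assay in which AMPK activity was measured as the relative concentration of phosphorylated acetyl-CoA carboxylase, a product of AMPK, by enzyme-linked immunosorbent assay. The endpoint is the EC50 for AMPK activation of each compound. EC50 values were reported in ranges: less than 1 μM, 1-10 μM, 10-20 μM, 20-50 μM, 50-100 μM, and >100 μM.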
With `O=C(NC1CCN(Cc2ccccc2)CC1)c1ccc(OC2CCN(Cc3cccnc3)CC2)c(F)c1` [Compound 38, N-(1-benzylpiperidin-4-yl)-3-fluoro-4-(1-(pyridin-3-ylmethyl)piperidin-4-yloxy)benzamide], the EC50 (as a rule, the concentration that produces a half-maximal response) fell in the range of 1000 to 10000 nM.

`Cn1cncc1CN1CCC(Oc2ccc(C(=O)NC3CCN(Cc4ccccc4)CC3)cc2)CC1` [Compound 4, N-(1-benzylpiperidin-4-yl)-4-(1-((l-methyl-1H-imidazol-5-yl)methyl)piperidin-4-yloxy)benzamide] registered an EC50 above 100000 nM.

`O=C(NC1CCN(Cc2ccccc2)CC1)c1ccc(OC2CCN(Cc3ccc(C(F)(F)F)cc3)CC2)c(Cl)c1` [Compound 56, N-(1-benzylpiperidin-4-yl)-3-chloro-4-(1-(4-(trifluoromethyl)benzyl)piperidin-4-yloxy)benzamide] gave an EC50 below 1000 nM.

As to `O=C(c1ccc(OC2CCN(Cc3ccccc3)CC2)cc1)N1CCN(Cc2ccccn2)CC1` [Compound 105, (4-(1-benzylpiperidin-4-yloxy)phenyl)(4-(pyridin-2-ylmethyl)piperazin-1-yl)methanone], the EC50 fell in the range of 10000 to 20000 nM.

Take `N#Cc1ccc(CN2CCC(NC(=O)c3ccc(OC4CCN(c5ccc(C#N)cc5)CC4)c(F)c3)CC2)cc1` [Compound 45, N-(1-(4-cyanobenzyl)piperidin-4-yl)-4-(1-(4-cyanophenyl)piperidin-4-yloxy)-3-fluorobenzamide]: the EC50 was below 1000 nM.

Turning to `O=C(NC1CCN(C(=O)c2ccncc2)CC1)c1ccc(OC2CCN(c3ccc(C(F)(F)F)cc3)CC2)c(F)c1` [Compound 40, 3-fluoro-N-(1-isonicotinoylpiperidin-4-yl)-4-(1-(4-(trifluoromethyl)phenyl)piperidin-4-yloxy)benzamide], the EC50 is below 1000 nM.

With `O=C(NC1CCN(Cc2ccccc2)CC1)c1ccc(OC2CCN(c3ccco3)CC2)c(Cl)c1` [Compound 11, N-(1-benzylpiperidin-4-yl)-3-chloro-4-(1-(furan-2-yl)piperidin-4-yloxy)benzamide], the EC50 lay in the range of 1000 to 10000 nM.

In the case of `O=C(NC1CCN(Cc2ccccc2)CC1)c1cc(Cl)c(OC2CCN(Cc3ccc(Cl)cc3)CC2)c(Cl)c1` [Compound 75, N-(1-benzylpiperidin-4-yl)-3,5-dichloro-4-(1-(4-chlorobenzyl)piperidin-4-yloxy)benzamide], the EC50 was below 1000 nM.

`O=C(O)c1ccc(CN2CCC(NC(=O)c3ccc(OC4CCN(c5ccc(C(F)(F)F)cc5)CC4)c(F)c3)CC2)cc1` [Compound 35, 4-((4-(3-fluoro-4-(1-(4-(trifluoromethyl)phenyl)piperidin-4-yloxy)benzamido)piperidin-1-yl)methyl)benzoic acid] yielded an EC50 of 1000 to 10000 nM.

The compound `CN1CCC(NC(=O)c2ccc(OC3CCN(Cc4ccc(C(F)(F)F)cc4)CC3)c(Cl)c2)CC1` [Compound 58, 3-chloro-N-(1-methylpiperidin-4-yl)-4-(1-(4-(trifluoromethyl)benzyl)piperidin-4-yloxy)benzamide] came in with an EC50 of 1000 to 10000 nM.

Regarding `N#Cc1ccc(CN2CCC(Oc3ccc(C(=O)NC4CCN(Cc5ccncc5)CC4)cc3)CC2)cc1` [Compound 83, 4-(1-(4-cyanobenzyl)piperidin-4-yloxy)-N-(1-(pyridin-4-ylmethyl)piperidin-4-yl)benzamide], the half-maximal effective concentration (EC50) is below 1000 nM.

`O=C(NC1CCN(Cc2ccccc2)CC1)c1ccc(OC2CCN(Cc3ccc(Cl)c(Cl)c3)CC2)c(F)c1` [Compound 82, N-(1-benzylpiperidin-4-yl)-4-(1-(3,4-dichlorobenzyl)piperidin-4-yloxy)-3-fluorobenzamide]: the EC50 is below 1000 nM.

The compound `O=C(NC1CCN(Cc2ccncc2)CC1)c1cccc(OC2CCN(c3ccc(C(F)(F)F)cc3)CC2)c1` [Compound 87, N-(1-(pyridin-4-ylmethyl)piperidin-4-yl)-3-(1-(4-(trifluoromethyl)phenyl)piperidin-4-yloxy)benzamide] returned an EC50 below 1000 nM.

`CC(C)(C)OC(=O)N1CCC(Oc2ccc(C(=O)NC3CCN(Cc4ccccc4)CC3)cc2F)CC1` [Compound 92, tert-butyl 4-(4-(1-benzylpiperidin-4-ylcarbamoyl)-2-fluorophenoxy)piperidine-1-carboxylate] displayed an EC50 of 1000 to 10000 nM.

Compound `O=C(NC1CCN(Cc2ccc(F)cc2)CC1)c1ccc(OC2CCN(Cc3ccc(Cl)cc3)CC2)c(Cl)c1` [Compound 66, 3-chloro-4-(1-(4-chlorobenzyl)piperidin-4-yloxy)-N-(1-(4-fluorobenzyl)piperidin-4-yl)benzamide] had a half-maximal effective concentration (EC50) below 1000 nM.

In turn, `N#Cc1ccc(CN2CCC(Oc3c(Cl)cc(C(=O)NC4CCN(Cc5ccccc5)CC4)cc3Cl)CC2)cc1` [Compound 77, N-(1-benzylpiperidin-4-yl)-3,5-dichloro-4-(1-(4-cyanobenzyl)piperidin-4-yloxy)benzamide] yielded an EC50 below 1000 nM.

As to `O=C(NC1CCN(Cc2ccccc2)CC1)c1cccc(OC2CCN(c3ccccn3)CC2)c1` [Compound 86, N-(1-benzylpiperidin-4-yl)-3-(1-(pyridin-2-yl)piperidin-4-yloxy)benzamide], the 50% effective concentration (EC50) was below 1000 nM.

`COc1cc(C(=O)NC2CCN(Cc3ccccc3)CC2)ccc1OC1CCN(S(C)(=O)=O)CC1` [Compound 9, N-(1-benzylpiperidin-4-yl)-3-methoxy-4-(1-(methylsulfonyl)piperidin-4-yloxy)benzamide] displayed a 50% effective concentration (EC50) of 20000 to 50000 nM.

Turning to `CC(C)(C)OC(=O)N1CCC(Oc2ccc(C(=O)NC3CCN(Cc4ccccc4)CC3)cc2Cl)CC1` [Compound 90, tert-butyl 4-(4-(1-benzylpiperidin-4-ylcarbamoyl)-2-chlorophenoxy)piperidine-1-carboxylate], the EC50 fell in the range of 1000 to 10000 nM.

As for `N#Cc1ccc(CN2CCC(Oc3ccc(C(=O)NC4CCNCC4)cc3)CC2)cc1` [Compound 79, 4-(1-(4-cyanobenzyl)piperidin-4-yloxy)-N-(piperidin-4-yl)benzamide], the EC50 is above 100000 nM.

As for `Cn1cncc1CN1CCC(Oc2ccc(C(=O)NC3CCN(Cc4ccccc4)CC3)cc2Cl)CC1` [Compound 5, N-(1-benzylpiperidin-4-yl)-3-chloro-4-(1-((l-methyl-1H-imidazol-5-yl)methyl)piperidin-4-yloxy)benzamide], the EC50 lay in the range of 50000 to 100000 nM.

The compound `O=C(NC1CCN(Cc2ccccc2)CC1)c1cccc(OC2CCN(c3ccc(C(F)(F)F)cc3)CC2)c1` [Compound 46, N-(1-benzylpiperidin-4-yl)-3-(1-(4-(trifluoromethyl)phenyl)piperidin-4-yloxy)benzamide] displayed a half-maximal effective concentration (EC50) below 1000 nM.

Compound `O=C(NC1CCN(Cc2ccccc2)CC1)c1ccc(OC2CCN(Cc3ccc(Cl)c(Cl)c3)CC2)c(Cl)c1` [Compound 84, N-(1-benzylpiperidin-4-yl)-3-chloro-4-(1-(3,4-dichlorobenzyl)piperidin-4-yloxy)benzamide] had an EC50 below 1000 nM.

On to `O=C(NC1CCN(Cc2ccccc2)CC1)c1ccc(OC2CCN(Cc3ccc(F)cc3)CC2)c(F)c1` [Compound 61, N-(1-benzylpiperidin-4-yl)-3-fluoro-4-(1-(4-fluorobenzyl)piperidin-4-yloxy)benzamide], for which the EC50 is below 1000 nM.

Regarding `COc1cc(C(=O)NCCCN2CCOCC2)ccc1OC1CCN(Cc2ccc(Cl)cc2)CC1` [Compound 98], the EC50 was in the range of 1000 to 10000 nM.

As for `Cc1ccc(CN2CCC(Oc3ccc(C(=O)NC4CCN(Cc5ccccc5)CC4)cc3F)CC2)cc1` [Compound 42, N-(1-benzylpiperidin-4-yl)-3-fluoro-4-(1-(4-methylbenzyl)piperidin-4-yloxy)benzamide], the 50% effective concentration (EC50) was below 1000 nM.

`O=C(NC1CCN(Cc2ccccc2)CC1)c1ccc(OC2CCN(Cc3cccc(C(F)(F)F)c3)CC2)c(Cl)c1` [Compound 60, N-(1-benzylpiperidin-4-yl)-3-chloro-4-(1-(3-(trifluoromethyl)benzyl)piperidin-4-yloxy)benzamide] displayed a half-maximal effective concentration (EC50) below 1000 nM.

Compound `CC(C)(C)C(=O)N1CCC(Oc2ccc(C(=O)NC3CCN(Cc4ccccc4)CC3)cc2Cl)CC1` [Compound 91, N-(1-benzylpiperidin-4-yl)-3-chloro-4-(1-pivaloylpiperidin-4-yloxy)benzamide] had a half-maximal effective concentration (EC50) below 1000 nM.

`N#Cc1ccc(CN2CCC(NC(=O)c3ccc(OC4CCN(c5ccc(C(F)(F)F)cc5)CC4)c(F)c3)CC2)cc1` [Compound 43, N-(1-(4-cyanobenzyl)piperidin-4-yl)-3-fluoro-4-(1-(4-(trifluoromethyl)phenyl)piperidin-4-yloxy)benzamide]: the EC50 was below 1000 nM.

The compound `N#Cc1ccc(N2CCC(Oc3ccc(C(=O)NC4CCN(Cc5ccc(Cl)cc5)CC4)cc3F)CC2)cc1` [Compound 81, N-(1-(4-chlorobenzyl)piperidin-4-yl)-4-(1-(4-cyanophenyl)piperidin-4-yloxy)-3-fluorobenzamide] came in with an EC50 below 1000 nM.

Take `N#Cc1ccc(CN2CCC(Oc3cccc(C(=O)NC4CCN(Cc5ccccc5)CC4)c3)CC2)cc1` [Compound 50, N-(1-benzylpiperidin-4-yl)-3-(1-(4-cyanobenzyl)piperidin-4-yloxy)benzamide]: the EC50 was 1000 to 10000 nM.

In turn, `O=C(NC1CCN(Cc2ccccc2)CC1)c1ccc(OC2CCN(Cc3ccncc3)CC2)c(F)c1` [Compound 37, N-(1-benzylpiperidin-4-yl)-3-fluoro-4-(1-(pyridin-4-ylmethyl)piperidin-4-yloxy)benzamide] came in with an EC50 below 1000 nM.

In turn, `O=C(NC1CCN(Cc2ccccc2)CC1)c1ccc(OC2CCN(Cc3ccc(OC(F)(F)F)cc3)CC2)cc1` [Compound 63, N-(1-benzylpiperidin-4-yl)-4-(1-(4-(trifluoromethoxy)benzyl)piperidin-4-yloxy)benzamide] displayed an EC50 below 1000 nM.

In turn, `O=C(NC1CCN(Cc2ccccc2)CC1)c1ccc(OC2CCN(Cc3ccc(C(F)(F)F)cc3)CC2)c(F)c1` [Compound 55, N-(1-benzylpiperidin-4-yl)-3-fluoro-4-(1-(4-(trifluoromethyl)benzyl)piperidin-4-yloxy)benzamide] registered an EC50 below 1000 nM.

`O=C(NC1CCN(Cc2ccccc2)CC1)c1ccc(OC2CCN(C(=O)c3ccc(F)cc3)CC2)c(Cl)c1` [Compound 22, N-(1-benzylpiperidin-4-yl)-3-chloro-4-(1-(4-fluorobenzoyl)piperidin-4-yloxy)benzamide] came in with an EC50 of 1000 to 10000 nM.
